Data on 3 molecules can be found in ChEMBL document CHEMBL5303573, “Mapping human microbiome drug metabolism by gut bacteria and their genes” (Nature, 2019).

One series can be described thus: The drug is tested on Bacteroides xylanisolvens strain: DSM18836 for biotransformation. The drug concentrations were measured before and after a 12-h incubation by liquid-chromatography-coupled mass spectrometry (LC–MS). The note with it: 2 µM.
Turning to `CCOC(=O)[C@H](CCc1ccccc1)N[C@@H](C)C(=O)N1Cc2ccccc2C[C@H]1C(=O)O`, the “Bacterial Biotransformation” value is “Compound metabolized”.

For `CC(C(=O)O)c1ccc2c(c1)Cc1cccnc1O2` (stereo not given) [PRANOPROFEN], the “Bacterial Biotransformation” value is reported as “Compound metabolized”.

`CCOC(=O)[C@H](CCc1ccccc1)N[C@H]1CCc2ccccc2N(CC(=O)O)C1=O` [BENAZEPRIL]: the “Bacterial Biotransformation” value was “Compound metabolized”.

A further series can be described thus: The drug is tested on Collinsella aerofaciens strain: ATCC25986 for biotransformation. The drug concentrations were measured before and after a 12-h incubation by liquid-chromatography-coupled mass spectrometry (LC–MS). Particulars: 2 µM.
`CCOC(=O)[C@H](CCc1ccccc1)N[C@@H](C)C(=O)N1Cc2ccccc2C[C@H]1C(=O)O`: the “Bacterial Biotransformation” value is “Compound NOT metabolized”.

For `CC(C(=O)O)c1ccc2c(c1)Cc1cccnc1O2` (stereo not given) [PRANOPROFEN], the “Bacterial Biotransformation” value is recorded as “Compound NOT metabolized”.

Regarding `CCOC(=O)[C@H](CCc1ccccc1)N[C@H]1CCc2ccccc2N(CC(=O)O)C1=O` [BENAZEPRIL], the “Bacterial Biotransformation” value is reported as “Compound metabolized”.

For a further series the following is noted: bacteroides fragilis, 12 h, 2 µM.
Description: The drug is tested on Bacteroides fragilis strain: 3397 (T10) for biotransformation. The drug concentrations were measured before and after a 12-h incubation by liquid-chromatography-coupled mass spectrometry (LC–MS)
As for `CCOC(=O)[C@H](CCc1ccccc1)N[C@@H](C)C(=O)N1Cc2ccccc2C[C@H]1C(=O)O`, the “Bacterial Biotransformation” value is listed as “Compound metabolized”.

`CC(C(=O)O)c1ccc2c(c1)Cc1cccnc1O2` (stereo not given) [PRANOPROFEN]: the “Bacterial Biotransformation” value is “Compound metabolized”.

Turning to `CCOC(=O)[C@H](CCc1ccccc1)N[C@H]1CCc2ccccc2N(CC(=O)O)C1=O` [BENAZEPRIL], the “Bacterial Biotransformation” value is recorded as “Compound metabolized”.

The nature of another series: The drug is tested on Eubacterium hallii strain: DSM3353 for biotransformation. The drug concentrations were measured before and after a 12-h incubation by liquid-chromatography-coupled mass spectrometry (LC–MS). Particulars: anaerobutyricum hallii, 2 µM.
In the case of `CCOC(=O)[C@H](CCc1ccccc1)N[C@@H](C)C(=O)N1Cc2ccccc2C[C@H]1C(=O)O`, the “Bacterial Biotransformation” value was “Compound NOT metabolized”.

In the case of `CC(C(=O)O)c1ccc2c(c1)Cc1cccnc1O2` (stereo not given) [PRANOPROFEN], the “Bacterial Biotransformation” value was “Compound metabolized”.

Consider `CCOC(=O)[C@H](CCc1ccccc1)N[C@H]1CCc2ccccc2N(CC(=O)O)C1=O` [BENAZEPRIL], for which the “Bacterial Biotransformation” value is given as “Compound NOT metabolized”.

Another series is described as follows: The drug is tested on Clostridium sporogenes strain: ATCC15579 for biotransformation. The drug concentrations were measured before and after a 12-h incubation by liquid-chromatography-coupled mass spectrometry (LC–MS). The note with it: 2 µM.
`CCOC(=O)[C@H](CCc1ccccc1)N[C@H]1CCc2ccccc2N(CC(=O)O)C1=O` [BENAZEPRIL]: the “Bacterial Biotransformation” value is on record as “Compound metabolized”.

The conditions of the next series: anaerostipes sp., 12 h, 2 µM.
Description: The drug is tested on Anaerostipes sp. strain: fecal isolate for biotransformation. The drug concentrations were measured before and after a 12-h incubation by liquid-chromatography-coupled mass spectrometry (LC–MS)
Regarding `CCOC(=O)[C@H](CCc1ccccc1)N[C@@H](C)C(=O)N1Cc2ccccc2C[C@H]1C(=O)O`, the “Bacterial Biotransformation” value is listed as “Compound NOT metabolized”.

For `CC(C(=O)O)c1ccc2c(c1)Cc1cccnc1O2` (stereo not given) [PRANOPROFEN], the “Bacterial Biotransformation” value is recorded as “Compound NOT metabolized”.

On to `CCOC(=O)[C@H](CCc1ccccc1)N[C@H]1CCc2ccccc2N(CC(=O)O)C1=O` [BENAZEPRIL], for which the “Bacterial Biotransformation” value is listed as “Compound NOT metabolized”.

The nature of the next series: The drug is tested on Odoribacter splanchnicus strain: fecal isolate for biotransformation. The drug concentrations were measured before and after a 12-h incubation by liquid-chromatography-coupled mass spectrometry (LC–MS). The note with it: 2 µM.
As to `CCOC(=O)[C@H](CCc1ccccc1)N[C@@H](C)C(=O)N1Cc2ccccc2C[C@H]1C(=O)O`, the “Bacterial Biotransformation” value was “Compound metabolized”.

As for `CC(C(=O)O)c1ccc2c(c1)Cc1cccnc1O2` (stereo not given) [PRANOPROFEN], the “Bacterial Biotransformation” value is given as “Compound metabolized”.

With `CCOC(=O)[C@H](CCc1ccccc1)N[C@H]1CCc2ccccc2N(CC(=O)O)C1=O` [BENAZEPRIL], the “Bacterial Biotransformation” value is “Compound metabolized”.

A short description of the next series: The drug is tested on Ruminococcus lactaris strain: ATCC29176 for biotransformation. The drug concentrations were measured before and after a 12-h incubation by liquid-chromatography-coupled mass spectrometry (LC–MS). The note with it: 2 µM.
Turning to `CCOC(=O)[C@H](CCc1ccccc1)N[C@@H](C)C(=O)N1Cc2ccccc2C[C@H]1C(=O)O`, the “Bacterial Biotransformation” value is “Compound NOT metabolized”.

With `CC(C(=O)O)c1ccc2c(c1)Cc1cccnc1O2` (stereo not given) [PRANOPROFEN], the “Bacterial Biotransformation” value is given as “Compound NOT metabolized”.

For `CCOC(=O)[C@H](CCc1ccccc1)N[C@H]1CCc2ccccc2N(CC(=O)O)C1=O` [BENAZEPRIL], the “Bacterial Biotransformation” value is recorded as “Compound NOT metabolized”.

A short description of a further series: The drug is tested on Coprococcus comes strain: ATCC27758 for biotransformation. The drug concentrations were measured before and after a 12-h incubation by liquid-chromatography-coupled mass spectrometry (LC–MS). It counts as ADME. The arrangement: dose 2 uM, timepoint 0 vs 12 hours. Particulars: 2 µM.
For `CCOC(=O)[C@H](CCc1ccccc1)N[C@@H](C)C(=O)N1Cc2ccccc2C[C@H]1C(=O)O`, the “Bacterial Biotransformation” value is given as “Compound NOT metabolized”.

Regarding `CC(C(=O)O)c1ccc2c(c1)Cc1cccnc1O2` (stereo not given) [PRANOPROFEN], the “Bacterial Biotransformation” value is “Compound metabolized”.

With `CCOC(=O)[C@H](CCc1ccccc1)N[C@H]1CCc2ccccc2N(CC(=O)O)C1=O` [BENAZEPRIL], the “Bacterial Biotransformation” value is given as “Compound NOT metabolized”.

The nature of a further series: The drug is tested on Bacteroides fragilis strain: ATCC43859 for biotransformation. The drug concentrations were measured before and after a 12-h incubation by liquid-chromatography-coupled mass spectrometry (LC–MS). Particulars: 2 µM.
Regarding `CCOC(=O)[C@H](CCc1ccccc1)N[C@@H](C)C(=O)N1Cc2ccccc2C[C@H]1C(=O)O`, the “Bacterial Biotransformation” value is “Compound metabolized”.

For `CC(C(=O)O)c1ccc2c(c1)Cc1cccnc1O2` (stereo not given) [PRANOPROFEN], the “Bacterial Biotransformation” value is “Compound metabolized”.

In the case of `CCOC(=O)[C@H](CCc1ccccc1)N[C@H]1CCc2ccccc2N(CC(=O)O)C1=O` [BENAZEPRIL], the “Bacterial Biotransformation” value is given as “Compound metabolized”.

For another series the following is noted: parabacteroides distasonis, 12 h, 2 µM.
Description: The drug is tested on Parabacteroides distasonis strain: ATCC8503 for biotransformation. The drug concentrations were measured before and after a 12-h incubation by liquid-chromatography-coupled mass spectrometry (LC–MS)
As for `CCOC(=O)[C@H](CCc1ccccc1)N[C@@H](C)C(=O)N1Cc2ccccc2C[C@H]1C(=O)O`, the “Bacterial Biotransformation” value is “Compound metabolized”.

For the molecule `CC(C(=O)O)c1ccc2c(c1)Cc1cccnc1O2` (stereo not given) [PRANOPROFEN], the “Bacterial Biotransformation” value is “Compound metabolized”.

Turning to `CCOC(=O)[C@H](CCc1ccccc1)N[C@H]1CCc2ccccc2N(CC(=O)O)C1=O` [BENAZEPRIL], the “Bacterial Biotransformation” value is given as “Compound metabolized”.

Another series can be described thus: The drug is tested on Enterobacter cancerogenus strain: ATCC35316 for biotransformation. The drug concentrations were measured before and after a 12-h incubation by liquid-chromatography-coupled mass spectrometry (LC–MS). The note with it: 2 µM.
As for `CCOC(=O)[C@H](CCc1ccccc1)N[C@@H](C)C(=O)N1Cc2ccccc2C[C@H]1C(=O)O`, the “Bacterial Biotransformation” value was “Compound NOT metabolized”.

`CC(C(=O)O)c1ccc2c(c1)Cc1cccnc1O2` (stereo not given) [PRANOPROFEN]: the “Bacterial Biotransformation” value is “Compound NOT metabolized”.

Take `CCOC(=O)[C@H](CCc1ccccc1)N[C@H]1CCc2ccccc2N(CC(=O)O)C1=O` [BENAZEPRIL]: the “Bacterial Biotransformation” value is given as “Compound NOT metabolized”.

The nature of the next series: The drug is tested on Bacteroides caccae strain: ATCC43185 for biotransformation. The drug concentrations were measured before and after a 12-h incubation by liquid-chromatography-coupled mass spectrometry (LC–MS). Particulars: 2 µM.
Turning to `CCOC(=O)[C@H](CCc1ccccc1)N[C@@H](C)C(=O)N1Cc2ccccc2C[C@H]1C(=O)O`, the “Bacterial Biotransformation” value is recorded as “Compound metabolized”.

Turning to `CC(C(=O)O)c1ccc2c(c1)Cc1cccnc1O2` (stereo not given) [PRANOPROFEN], the “Bacterial Biotransformation” value is reported as “Compound metabolized”.

`CCOC(=O)[C@H](CCc1ccccc1)N[C@H]1CCc2ccccc2N(CC(=O)O)C1=O` [BENAZEPRIL]: the “Bacterial Biotransformation” value is “Compound metabolized”.

For the next series the following is noted: bacteroides intestinalis, 12 h, 2 µM.
Description: The drug is tested on Bacteroides intestinalis strain: DSM17393 for biotransformation. The drug concentrations were measured before and after a 12-h incubation by liquid-chromatography-coupled mass spectrometry (LC–MS)
Consider `CCOC(=O)[C@H](CCc1ccccc1)N[C@@H](C)C(=O)N1Cc2ccccc2C[C@H]1C(=O)O`, for which the “Bacterial Biotransformation” value is “Compound metabolized”.

`CC(C(=O)O)c1ccc2c(c1)Cc1cccnc1O2` (stereo not given) [PRANOPROFEN]: the “Bacterial Biotransformation” value was “Compound metabolized”.

As for `CCOC(=O)[C@H](CCc1ccccc1)N[C@H]1CCc2ccccc2N(CC(=O)O)C1=O` [BENAZEPRIL], the “Bacterial Biotransformation” value is “Compound metabolized”.

A short description of another series: The drug is tested on Bacteroides finegoldii strain: DSM17565 for biotransformation. The drug concentrations were measured before and after a 12-h incubation by liquid-chromatography-coupled mass spectrometry (LC–MS). Particulars: 2 µM.
Consider `CC(C(=O)O)c1ccc2c(c1)Cc1cccnc1O2` (stereo not given) [PRANOPROFEN], for which the “Bacterial Biotransformation” value is “Compound metabolized”.

As to `CCOC(=O)[C@H](CCc1ccccc1)N[C@H]1CCc2ccccc2N(CC(=O)O)C1=O` [BENAZEPRIL], the “Bacterial Biotransformation” value is “Compound metabolized”.

The next series in a line: The drug is tested on Clostridium scindens strain: ATCC35704 for biotransformation. The drug concentrations were measured before and after a 12-h incubation by liquid-chromatography-coupled mass spectrometry (LC–MS). The note with it: 2 µM.
`CCOC(=O)[C@H](CCc1ccccc1)N[C@@H](C)C(=O)N1Cc2ccccc2C[C@H]1C(=O)O`: the “Bacterial Biotransformation” value was “Compound NOT metabolized”.

For the molecule `CC(C(=O)O)c1ccc2c(c1)Cc1cccnc1O2` (stereo not given) [PRANOPROFEN], the “Bacterial Biotransformation” value is “Compound NOT metabolized”.

As to `CCOC(=O)[C@H](CCc1ccccc1)N[C@H]1CCc2ccccc2N(CC(=O)O)C1=O` [BENAZEPRIL], the “Bacterial Biotransformation” value is “Compound NOT metabolized”.

A further series can be described thus: The drug is tested on Providencia rettgeri strain: DSM1131 for biotransformation. The drug concentrations were measured before and after a 12-h incubation by liquid-chromatography-coupled mass spectrometry (LC–MS). The arrangement: dose 2 uM, timepoint 0 vs 12 hours. Format: ADME. Particulars: 2 µM.
As to `CCOC(=O)[C@H](CCc1ccccc1)N[C@@H](C)C(=O)N1Cc2ccccc2C[C@H]1C(=O)O`, the “Bacterial Biotransformation” value was “Compound NOT metabolized”.

In the case of `CC(C(=O)O)c1ccc2c(c1)Cc1cccnc1O2` (stereo not given) [PRANOPROFEN], the “Bacterial Biotransformation” value was “Compound metabolized”.

A further series can be described thus: The drug is tested on Bacteroides fragilis strain: HMW615 for biotransformation. The drug concentrations were measured before and after a 12-h incubation by liquid-chromatography-coupled mass spectrometry (LC–MS). Particulars: 2 µM.
With `CCOC(=O)[C@H](CCc1ccccc1)N[C@@H](C)C(=O)N1Cc2ccccc2C[C@H]1C(=O)O`, the “Bacterial Biotransformation” value is listed as “Compound metabolized”.

Turning to `CC(C(=O)O)c1ccc2c(c1)Cc1cccnc1O2` (stereo not given) [PRANOPROFEN], the “Bacterial Biotransformation” value is “Compound metabolized”.

Consider `CCOC(=O)[C@H](CCc1ccccc1)N[C@H]1CCc2ccccc2N(CC(=O)O)C1=O` [BENAZEPRIL], for which the “Bacterial Biotransformation” value is “Compound metabolized”.

The conditions of another series: bacteroides thetaiotaomicron, 12 h, 2 µM.
Description: The drug is tested on Bacteroides thetaiotaomicron strain: 3731 for biotransformation. The drug concentrations were measured before and after a 12-h incubation by liquid-chromatography-coupled mass spectrometry (LC–MS)
For `CCOC(=O)[C@H](CCc1ccccc1)N[C@@H](C)C(=O)N1Cc2ccccc2C[C@H]1C(=O)O`, the “Bacterial Biotransformation” value is on record as “Compound metabolized”.

Consider `CC(C(=O)O)c1ccc2c(c1)Cc1cccnc1O2` (stereo not given) [PRANOPROFEN], for which the “Bacterial Biotransformation” value is listed as “Compound metabolized”.

As for `CCOC(=O)[C@H](CCc1ccccc1)N[C@H]1CCc2ccccc2N(CC(=O)O)C1=O` [BENAZEPRIL], the “Bacterial Biotransformation” value is recorded as “Compound metabolized”.

Another series is described as follows: The drug is tested on Bifidobacterium longum subsp. Infantis strain: CCUG52486 for biotransformation. The drug concentrations were measured before and after a 12-h incubation by liquid-chromatography-coupled mass spectrometry (LC–MS). The note with it: 2 µM.
Turning to `CCOC(=O)[C@H](CCc1ccccc1)N[C@@H](C)C(=O)N1Cc2ccccc2C[C@H]1C(=O)O`, the “Bacterial Biotransformation” value is “Compound NOT metabolized”.

For the molecule `CC(C(=O)O)c1ccc2c(c1)Cc1cccnc1O2` (stereo not given) [PRANOPROFEN], the “Bacterial Biotransformation” value is given as “Compound metabolized”.
